Reference: patent publication US11702422B2, “Imidazopyridazines as modulators of IL-17” (Janssen Pharmaceutica NV, priority 2020, dated 2023)

Legend:
[1] = target: IL-17A(FLAG-Tagged): IL-17RA(His-Tagged) (Homo sapiens, UniProt Q16552, K93Q); assay: IL-17A(FLAG-Tagged): IL-17RA(His-Tagged) Binding Disruption Eu-HTRF Assay; settings: IL-17A/IL-17RA binding disruption, simple average if tested more than once
How it was run: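 IC50 comes from a one-site competition fit of the HTRF 665/620 nm ratio. Compound dilutions (2-fold, 22 points) were held 1 h rt with FLAG-tagged IL-17A dimer, then His-tagged IL-17RA plus Eu-cryptate anti-FLAG and D2 anti-His antibodies were added for 2 h rt.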

[2] = system: IL-17A-induced G-CSF production in human normal keratinocyte (NHK); assay: NHK Assay: IL-17A-induced G-CSF production in human normal keratinocytes; type: cell-based; settings: 24 h, adult normal human keratinocytes, IL-17A 5 ng/mL, simple average if tested more than once
How it was run: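 Compound is first combined with recombinant human IL-17A for 1 h at rt, and the mix is added to adult normal human keratinocytes so that IL-17A is 5 ng/mL. After 24 h at 37° C in 5% FBS, G-CSF released into the medium is read by HTRF and IC50 derived.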

UniProt Q16552, sequence (Q16552 with tags, fused parts or gaps K93Q): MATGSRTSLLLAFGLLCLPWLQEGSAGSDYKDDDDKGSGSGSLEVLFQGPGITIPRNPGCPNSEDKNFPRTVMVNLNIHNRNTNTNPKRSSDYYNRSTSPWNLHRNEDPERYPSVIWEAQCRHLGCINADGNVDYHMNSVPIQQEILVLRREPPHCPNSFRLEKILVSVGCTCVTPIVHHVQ

Row | SMILES | IC50 [1] [nM] | IC50 ([2]; Homo sapiens, Keratinocyte) [nM] | IC50 [2] [nM]
1 | COCCn1ncc(C(=O)N[C@H](c2cn3ncc([C@H](NC(=O)CCC(F)(F)F)C4CC4)cc3n2)C2CCC(F)(F)CC2)n1 [Example 64, N—((S)-(7-((R)-Cyclopropyl(4,4,4-trifluorobutanamido)methyl)imidazo[1,2-b]pyridazin-2-yl)(4,4-difluorocyclohexyl)methyl)-2-(2-methoxyethyl)-2H-1,2,3-triazole-4-carboxamide] | 630 | 2000 | –
2 | O=C(CC1CC(F)(F)C1)N[C@@H](c1cnn2cc([C@@H](NC(=O)c3nonc3C3CC3)C3CCC(F)(F)CC3)nc2c1)C1CC1 [Example 289, 4-Cyclopropyl-N—((S)-(7-((R)-cyclopropyl(2-(3,3-difluorocyclobutyl)acetamido)methyl)imidazo[1,2-b]pyridazin-2-yl)(4,4-difluorocyclohexyl)methyl)-1,2,5-oxadiazole-3-carboxamide] | 37 | 23 | –
3 | Cc1nonc1C(=O)N[C@H](c1cn2ncc(C(NC(=O)CCC(F)(F)F)C(C)C)cc2n1)C1CCC(F)(F)CC1 (single isomer, unassigned) [Example 504, N—((S)-(4,4-Difluorocyclohexyl)(7-((S*)-2-methyl-1-(4,4,4-trifluorobutanamido)propyl)imidazo[1,2-b]pyridazin-2-yl)methyl)-4-methyl-1,2,5-oxadiazole-3-carboxamide] | 46 | – | 93
4 | Cc1c(C(=O)N[C@H](c2cn3ncc(C(NC(=O)CCC(F)(F)F)C4CC4)cc3n2)C2CCC(F)(F)CC2)cnn1CCC(F)(F)F (single isomer, unassigned) [Example 54, N—((S)-(7-((R*)-Cyclopropyl(4,4,4-trifluorobutanamido)methyl)imidazo[1,2-b]pyridazin-2-yl)(4,4-difluorocyclohexyl)methyl)-5-methyl-1-(3,3,3-trifluoropropyl)-1H-pyrazole-4-carboxamide] | 320 | – | 710
5 | O=C(CCC(F)(F)F)N[C@@H](c1cnn2cc([C@@H](NC(=O)c3ncn(CCC(F)(F)F)n3)C3CCC(F)(F)CC3)nc2c1)C1CC1 [Example 33, N—((S)-(7-((R)-Cyclopropyl(4,4,4-trifluorobutanamido)methyl)imidazo[1,2-b]pyridazin-2-yl)(4,4-difluorocyclohexyl)methyl)-1-(3,3,3-trifluoropropyl)-1H-1,2,4-triazole-3-carboxamide] | 4500 | > 20000 | –
6 | CC(C)c1cccc(C(=O)N[C@H](c2cn3ncc([C@H](NC(=O)CCC(F)(F)F)C4CC4)cc3n2)C2CCC(F)(F)CC2)n1 [Example 205, N—((S)-(7-((R)-Cyclopropyl(4,4,4-trifluorobutanamido)methyl)imidazo[1,2-b]pyridazin-2-yl)(4,4-difluorocyclohexyl)methyl)-6-isopropylpicolinamide] | 390 | 3700 | –
7 | C[C@@H](n1ncnc1C(=O)N[C@H](c1cn2ncc([C@H](NC(=O)CCC(F)(F)F)C3CC3)cc2n1)C1CCC(F)(F)CC1)C(F)(F)F [Example 478, N—((S)-(7-((R)-Cyclopropyl(4,4,4-trifluorobutanamido)methyl)imidazo[1,2-b]pyridazin-2-yl)(4,4-difluorocyclohexyl)methyl)-1-((R)-1,1,1-trifluoropropan-2-yl)-1H-1,2,4-triazole-5-carboxamide] | 450 | 850 | –
8 | CC(O)c1nonc1C(=O)N[C@H](c1cn2ncc([C@H](NC(=O)CC3CC(F)(F)C3)C3CC3)cc2n1)C1CCC(F)(F)CC1 (single isomer, unassigned) [Example 396, N—((S)-(7-((R)-Cyclopropyl(2-(3,3-difluorocyclobutyl)acetamido)methyl)imidazo[1,2-b]pyridazin-2-yl)(4,4-difluorocyclohexyl)methyl)-4-((S*)-1-hydroxyethyl)-1,2,5-oxadiazole-3-carboxamide] | 50 | – | 190
9 | Cc1nc(C)c(C(=O)N[C@H](c2cn3ncc([C@H](NC(=O)CCC(F)(F)F)C4CC4)cc3n2)C2CCC(F)(F)CC2)o1 [Example 472, N—((S)-(7-((R)-Cyclopropyl(4,4,4-trifluorobutanamido)methyl)imidazo[1,2-b]pyridazin-2-yl)(4,4-difluorocyclohexyl)methyl)-2,4-dimethyloxazole-5-carboxamide] | 45000 | > 20000 | –
10 | CC(C)c1nonc1C(=O)N[C@H](c1cn2ncc([C@H](NC(=O)CC3CC(F)(F)C3)C3CC3)cc2n1)C1CCC(F)(F)CC1 [Example 281, N—((S)-(7-((R)-Cyclopropyl(2-(3,3-difluorocyclobutyl)acetamido)methyl)imidazo[1,2-b]pyridazin-2-yl)(4,4-difluorocyclohexyl)methyl)-4-isopropyl-1,2,5-oxadiazole-3-carboxamide] | 24 | 26 | –
11 | O=C(CCC(F)(F)F)N[C@@H](c1cnn2cc([C@@H](NC(=O)[C@@H]3C[C@H]3C(F)(F)F)C3CCC(F)(F)CC3)nc2c1)C1CC1 (relative stereo) [Example 150, (Trans-1R*, 2R*)—N—((S)-(7-((R)-Cyclopropyl(4,4,4-trifluorobutanamido)methyl)imidazo[1,2-b]pyridazin-2-yl)(4,4-difluorocyclohexyl)methyl)-2-(trifluoromethyl)cyclopropane-1-carboxamide] | 1300 | > 20000 | –
12 | Cc1nonc1C(=O)N[C@H](c1cn2ncc([C@H](NC(=O)CC34CC(F)(C3)C4)C3CC3)cc2n1)C1CCC(F)(F)CC1 [Example 272, N—((S)-(7-((R)-Cyclopropyl(2-(3-fluorobicyclo[1.1.1]pentan-1-yl)acetamido)methyl)imidazo[1,2-b]pyridazin-2-yl)(4,4-difluorocyclohexyl)methyl)-4-methyl-1,2,5-oxadiazole-3-carboxamide] | 86 | 290 | –

Further molecules by falling IC50 [1], results first:

Row | IC50 [1] [nM] | SMILES | IC50 ([2]; Homo sapiens, Keratinocyte) [nM] | IC50 [2] [nM]
13 | 2000 | Cc1nonc1C(=O)N[C@H](c1cn2ncc([C@H](NC(=O)C34CC(F)(C3)C4)C3CC3)cc2n1)C1CCC(F)(F)CC1 [Example 269, N—((S)-(7-((R)-Cyclopropyl(3-fluorobicyclo[1.1.1]pentane-1-carboxamido)methyl)imidazo[1,2-b]pyridazin-2-yl)(4,4-difluorocyclohexyl)methyl)-4-methyl-1,2,5-oxadiazole-3-carboxamide] | 20000 | –
14 | 690 | CC(C)n1nccc1C(=O)N[C@H](c1cn2ncc(C(NC(=O)CC(C(F)(F)F)C(F)(F)F)C3CC3)cc2n1)C1CCC(F)(F)CC1 (single isomer, unassigned) [Example 11, N-((S)-(7-((S*)-Cyclopropyl(4,4,4-trifluoro-3-(trifluoromethyl)butanamido)methyl)imidazo[1,2-b]pyridazin-2-yl)(4,4-difluorocyclohexyl)methyl)-1-isopropyl-1H-pyrazole-5-carboxamide] | – | 1400
15 | 300 | CC(C)n1nccc1C(=O)N[C@H](c1cn2ncc(C(CC#N)NC(=O)CC3CC(F)(F)C3)cc2n1)C1CCC(F)(F)CC1 (single isomer, unassigned) [Example 447, N—((S)-(7-((R*)-2-Cyano-1-(2-(3,3-difluorocyclobutyl)acetamido)ethyl)imidazo[1,2-b]pyridazin-2-yl)(4,4-difluorocyclohexyl)methyl)-1-isopropyl-1H-pyrazole-5-carboxamide] | – | 1100
16 | 160 | O=C(CC1CC(F)(F)C1)N[C@@H](c1cnn2cc([C@@H](NC(=O)c3conc3OCC(F)F)C3CCC(F)(F)CC3)nc2c1)C1CC1 [Example 293, N—((S)-(7-((R)-Cyclopropyl(2-(3,3-difluorocyclobutyl)acetamido)methyl)imidazo[1,2-b]pyridazin-2-yl)(4,4-difluorocyclohexyl)methyl)-3-(2,2-difluoroethoxy)isoxazole-4-carboxamide] | 540 | –
17 | 140 | CC(C)n1nccc1C(=O)N[C@H](c1cn2ncc([C@H](NC(=O)CCC3CC3(F)F)C3CC3)cc2n1)C1CCC(F)(F)CC1 (single isomer, unassigned) [Example 271, N—((S)-(7-((R)-Cyclopropyl(3-((S*)-2,2-difluorocyclopropyl)propanamido)methyl)imidazo[1,2-b]pyridazin-2-yl)(4,4-difluorocyclohexyl)methyl)-1-isopropyl-1H-pyrazole-5-carboxamide] | – | 67
18 | 74 | Cc1nonc1C(=O)N[C@H](c1cn2ncc(C(NC(=O)CC3CC(F)(F)C3)C(C)C)cc2n1)C1CCC(F)(F)CC1 (single isomer, unassigned) [Example 513, N—((S)-(7-((S*)-1-(2-(3,3-Difluorocyclobutyl)acetamido)-2-methylpropyl)imidazo[1,2-b]pyridazin-2-yl)(4,4-difluorocyclohexyl)methyl)-4-methyl-1,2,5-oxadiazole-3-carboxamide] | 150 | –
19 | 50 | O=C(CCC(F)(F)F)N[C@@H](c1cnn2cc([C@@H](NC(=O)c3conc3C3CC3)C3CCC(F)(F)CC3)nc2c1)C1CC1 [Example 75, 3-Cyclopropyl-N—((S)-(7-((R)-cyclopropyl(4,4,4-trifluorobutanamido)methyl)imidazo[1,2-b]pyridazin-2-yl)(4,4-difluorocyclohexyl)methyl)isoxazole-4-carboxamide] | 92 | –
20 | 46 | CC(C)Oc1conc1C(=O)N[C@H](c1cn2ncc([C@H](NC(=O)CCC(F)(F)F)C3CC3)cc2n1)C1CCC(F)(F)CC1 [Example 374, N—((S)-(7-((R)-Cyclopropyl(4,4,4-trifluorobutanamido)methyl)imidazo[1,2-b]pyridazin-2-yl)(4,4-difluorocyclohexyl)methyl)-4-isopropoxyisoxazole-3-carboxamide] | 240 | –
